Values of other authors in US7517693B2, “Method and apparatus for determining a molecular descriptor of absorption for a candidate compound” (North Carolina State University, priority 2002, dated 2009).

Experiments:
[1] = Table III calibration compounds, known literature descriptor; for logL^16 (solute gas-hexadecane partition coefficient): 25° C.
[2] = Table IV study compounds

SMILES	α (effective solute H-bond acidity) [1]	β (effective solute H-bond basicity) [1]	π (effective solute dipolarity and polarizability) [1]	logKo/w [2]	logL^16 (solute gas-hexadecane partition coefficient) [1]
ClC=CCl [1,2-Dichloroethene]	0.11	0.05	0.61		
c1ncncn1 [1,3,5-triazine]				−1.17	
C1COCCO1 [1,4-dioxane]				−0.27	
CC12CCC(CC1)C(C)(C)O2 [1,8-cineole]				2.74	
CCCCCCCl [1-Chlorohexane]	0.00	0.10	0.40		3.777
CCCCCCCCCl [1-Chlorooctane]	0.00	0.10	0.40		4.772
CCCCCCF [1-Fluorohexane]	0.00	0.10	0.35		2.951
CCC[N+](=O)[O-] [1-nitropropane]				0.87	
OCC(F)(F)F [2,2,2-Trifluoroethanol]	0.57	0.25	0.60		1.224
Oc1ccccc1F [2-Fluorophenol]	0.61	0.26	0.69		3.453
COc1ccccc1O [2-Methoxyphenol]	0.22	0.52	0.91		4.449
N#Cc1cccc(O)c1 [3-Cyanophenol]	0.77	0.28	1.55		5.181
Oc1ccc(Cl)cc1 [4-Chlorophenol]	0.67	0.20	1.08		4.775
N#Cc1ccc(O)cc1 [4-Cyanophenol]	0.79	0.29	1.63		
Oc1ccc(F)cc1 [4-Fluorophenol]	0.63	0.23	0.97		3.844
Cc1ccc([N+](=O)[O-])cc1 [4-Nitrotoluene]	0.00	0.28	1.11		5.154
Nc1ccc(C(=O)O)cc1 [4-aminobenzoic acid]				0.83	
CC(=O)CC(C)C [4-methyl-2-pentanone]				1.31	
Nc1ccccc1 [Aniline]				0.90	
c1ccc2cc3ccccc3cc2c1 [Anthracene]				4.45	

SMILES	α (effective solute H-bond acidity) [1]	β (effective solute H-bond basicity) [1]	π (effective solute dipolarity and polarizability) [1]	logKo/w [2]	logL^16 (solute gas-hexadecane partition coefficient) [1]
CCNc1nc(Cl)nc(NC(C)C)n1 [Atrazine]				2.61	
c1ccccc1 [Benzene]			0.52		
OCc1ccccc1 [Benzyl alcohol]	0.33	0.56	0.87		4.221
CNC(=O)Oc1cccc2ccccc12 [Carbaryl]				2.36	
CCOC(=O)C(O)(c1ccc(Cl)cc1)c1ccc(Cl)cc1 [Chlorobenzilate]				4.74	
COc1cc(Cl)c(OC)cc1Cl [Chloroneb]				3.44	
CCCCCCCCCCCCO [Compound 1-Dodecanol, 1-Dodecanol]	0.37	0.48	0.42		6.640
CCCCCO [Compound 1-Pentanol, 1-Pentanol]	0.37	0.48	0.42		3.106
CCCCCCCCCCCO [Compound 1-Undecanol, 1-Undecanol]	0.37	0.48	0.42		6.130
CCCCI [Compound 1-iodobutane, 1-iodobutane]				3.08	
Oc1ccc2ccccc2c1 [Compound 2-Naphthol, 2-Naphthol]	0.61	0.40	1.08		
CCCC(C)=O [Compound 2-pentanone, 2-pentanone]				0.91	
Oc1ccc(I)cc1 [Compound 4-Iodophenol, 4-Iodophenol]	0.68	0.20	1.22		5.492
C1CCCCC1 [Cyclohexane]	0.00	0.00	0.10		2.964
OC1CCCCC1 [Cyclohexanol]	0.32	0.57	0.54		
C1CCCCCCC1 [Cyclooctane]	0.00	0.00	0.10		4.329
COC(=O)c1c(Cl)c(Cl)c(C(=O)OC)c(Cl)c1Cl [Dacthal]				4.28	
CCCCNCCCC [Di-n-butylamine]	0.08	0.69	0.30		4.349
c1ccc2c(c1)sc1ccccc12 [Dibenzothiophen]	0.00	0.18	1.31		7.575
ClCCl [Dichloromethane]	0.10	0.05	0.57		2.019

SMILES	α (effective solute H-bond acidity) [1]	β (effective solute H-bond basicity) [1]	π (effective solute dipolarity and polarizability) [1]	logKo/w [2]	logL^16 (solute gas-hexadecane partition coefficient) [1]
CCOCC [Diethylether]	0.00	0.45	0.25		
COC(=O)c1ccccc1C(=O)OC [Dimethyl phthalate]	0.00	0.88	1.41		
CCN [Ethylamine]	0.16	0.61	0.35		1.677
CCC(=O)c1ccccc1 [Ethylphenylketone]	0.00	0.51	0.95		4.971
CCF [Fluoroethane]	0.00	0.10	0.35		0.559
Cc1c(C)c(C)c(C)c(C)c1C [Hexamethylbenzene]	0.00	0.21	0.72		6.557
CCCCCCCCCCCCN1CCCCCC1=O [Laurocapram]				6.28	
Cl[C@H]1[C@H](Cl)[C@@H](Cl)[C@@H](Cl)[C@H](Cl)[C@H]1Cl [Lindane]				3.72	
CO [Methanol]	0.43	0.47	0.44		0.970
COc1ccc(C(c2ccc(OC)cc2)C(Cl)(Cl)Cl)cc1 [Methoxychlor]				5.08	
c1ccc2c(c1)ccc1ccccc12 [Phenanthrene]	0.00	0.26	1.29		7.632
C1CCNCC1 [Piperidine]	0.10	0.69	0.46		3.304
ClC(Cl)(Cl)Cl [Tetrachloromethane]	0.00	0.00	0.38		2.823
Sc1ccccc1 [Thiophenol]	0.09	0.16	0.80		
CCOP(=O)(OCC)OCC [Triethyl phosphate]	0.00	1.06	1.00		4.750
CCN(CC)CC [Triethylamine]	0.00	0.79	0.15		3.040
CN(C)C [Trimethylamine]	0.00	0.67	0.20		1.620
CCCCN [n-Butylamine]	0.16	0.61	0.35		
Cc1ccccc1O [o-Cresol]	0.52	0.30	0.86		4.218
